Results on 85 compounds are retold here after PMC12040169 (PLOS Biology, 2025).

SMILES strings stand for the structures.

The nature of the first data set: in vitro. Conditions: human, hela cells, % viability.
Broadly, the viability is a read-out of living cells in per cent, often relative to untreated cells. As to `Cc1cc(C)cc(NC(=O)c2ccccc2NS(=O)(=O)c2cccc(Cl)c2)c1` [CBK113887], the viability at 28.5 h, 10 µM was determined as 94.9%. For the compound `COc1ccc(NS(=O)(=O)c2ccc(Cl)cc2Cl)c(C(=O)NCc2ccccc2)c1` [CBK113943], the viability at 28.5 h, 10 µM amounted to 98.4%.

With `COc1ccc(NS(=O)(=O)c2c(Cl)cccc2Cl)c(C(=O)NCc2ccccc2)c1` [CBK113952], the viability at 28.5 h, 10 µM was 79.8%. The same measure, in the same setting: next, `COc1ccc(NS(=O)(=O)c2cccc(Cl)c2C)c(C(=O)NCc2ccccc2)c1` [CBK113953]: 85.3%; `COc1ccc(C)cc1S(=O)(=O)Nc1cc(Cl)ccc1C(=O)NCc1ccccc1` [CBK113954]: 85.5%. Regarding `COc1ccc(CNC(=O)c2ccccc2NS(=O)(=O)c2cc(Cl)ccc2Cl)cc1` [CBK113964], the viability at 28.5 h, 10 µM came out at 101%. Still for that read-out and setting: next, `CCCC(CCC)NC(=O)c1ccc(-n2nc(C(=O)OCC)c(Cl)c2C)cc1` [CBK114323]: 93.9%; `CCOC(=O)c1cnc(C2CC2)nc1NCc1cccc(C)c1C` [CBK114707]: 102%. For the compound `COCc1nnc(Sc2nccnc2NC(C)C)s1` [CBK115204], the viability at 28.5 h, 10 µM was 99.6%. On the same count and under the same terms, then `FC(F)(F)c1ccc(Sc2ccncc2)nc1` [CBK115217], with 108%.

Turning to `COCc1nnc(Sc2ccc(C(F)(F)F)cn2)s1` [CBK115219], the viability at 28.5 h, 10 µM was determined as 100%. As to `Cc1nnc(Sc2cccc(C(F)(F)F)n2)s1` [CBK115222], the viability at 28.5 h, 10 µM is 95.4%. The same measure, in the same setting: next, `Cc1ccccc1Sc1ncccc1C(F)(F)F` [CBK115231]: 104%.

On to `Cc1ccccc1Sc1cc(C(F)(F)F)ccn1` [CBK115233], for which the viability at 28.5 h, 10 µM came to 94.4%.

In the case of `FC(F)(F)c1ccnc(Sc2cccc(Cl)c2)c1` [CBK115234], the viability at 28.5 h, 10 µM is 94.8%. As to `FC(F)(F)c1cccc(Sc2cccs2)n1` [CBK115242], the viability at 28.5 h, 10 µM worked out at 91.5%. On the same count and under the same terms, then `FC(F)(F)c1ccnc(Sc2cccc(Cl)c2)n1` [CBK115247], with 98.5%; and `CC(C)Nc1nc2ccccc2nc1Sc1ccncc1` [CBK115250], with 102%; and `CC(C)Nc1nc2cc(Cl)c(Cl)cc2nc1Sc1nc[nH]n1` [CBK115261], with 93.3%. For `Nc1nnc(Sc2nc3cc(Cl)c(Cl)cc3nc2N2CCCC2)s1` [CBK115267], the viability at 28.5 h, 10 µM amounted to 98.9%. Consider `Oc1cccc(Sc2cc(C(F)(F)F)ccn2)c1` [CBK115273], for which the viability at 28.5 h, 10 µM was determined as 97.7%.

With `c1cnc(N2CCCC2)c(OC2CCNC2)n1` (stereo not shown) [CBK115284], the viability at 28.5 h, 10 µM was 98.3%. As to `NCCCOc1cc(N2CCCC2)ncn1` [CBK115285], the viability at 28.5 h, 10 µM is 106%. The same measure, in the same setting: then `NCCCOc1nc2ccccc2nc1N1CCCC1` [CBK115287], with 95.8%; and `c1ccc2nc(N3CCCC3)c(OC3CCNC3)nc2c1` (stereo not shown) [CBK115288], with 99.9%. Still for that read-out and setting: then `CN1CCC(Oc2nc3cc(Cl)c(Cl)cc3nc2N2CCCC2)CC1` [CBK115290], with 82.2%. `CN1CCN(C)C(COc2nc3cc(Cl)c(Cl)cc3nc2N2CCCC2)C1` (stereo not shown) [CBK115294]: the viability at 28.5 h, 10 µM is 92%. Still for that read-out and setting: next, `CCOC(=O)c1[nH]c2c([N+](=O)[O-])cccc2c1O` [CBK115315]: 88.1%; `COc1cc(C(C[N+](=O)[O-])c2c(C)[nH]c3ccccc23)ccc1O` (stereo not shown) [CBK115317]: 82.9%.

With `COc1ccc2c(c1OC)C(=O)N(c1cccc([N+](=O)[O-])c1)C2` [CBK115318], the viability at 28.5 h, 10 µM came to 99.5%. Still for that read-out and setting: then `Cc1cccc(-n2c(C#N)c(O)c3ccccc32)c1C` [CBK115319], with 106%; and `N#Cc1ccccc1N1C(=O)c2cccc([N+](=O)[O-])c2C1=O` [CBK115322], with 94.1%; and `O=C1c2cccc([N+](=O)[O-])c2C(=O)N1c1cc(Cl)cc(Cl)c1` [CBK115326], with 112%. As to `Cc1c(C(=O)O)c2cc(O)ccc2n1-c1ccccc1` [CBK115329], the viability at 28.5 h, 10 µM stood at 103%.

Regarding `COc1ccc(-n2c(C)c([N+](=O)[O-])c3ccc(O)cc32)cc1` [CBK115330], the viability at 28.5 h, 10 µM was 85%.

As to `COc1cc(C)c2c(N)c(C(C)=O)sc2n1` [CBK115336], the viability at 28.5 h, 10 µM turned out to be 94%. Still for that read-out and setting: next, `COC(=O)c1cc(C)nc2sc(C)c(N)c12` [CBK115343]: 85.8%.

Consider `Cc1ccc2c(N)c(C(=O)c3ccccc3)sc2n1` [CBK115347], for which the viability at 28.5 h, 10 µM came to 88.1%. `CSc1cccc(NC(=O)c2sc3nc(C)cc(C)c3c2N)c1` [CBK115349]: the viability at 28.5 h, 10 µM stood at 94.7%. Same read-out and setting: next, `CCOC(=O)c1c(CN(C)C)n(-c2ccccc2)c2cc(Br)c(OC)cc12` [CBK115360]: 117%. The same measure, in the same setting: then `COc1ccc(C(=O)c2sc3nc(C)cc(C)c3c2N)cc1` [CBK115362], with 87.7%. On the same count and under the same terms, next, `O=C1Nc2ccc(C(=O)NCC(O)CO)cc2/C1=C/c1c[nH]c2ncccc12` (stereo not shown) [CBK115363C]: 95.3%; `CC(=O)OC1CCn2c1nc1cc(C(F)(F)F)ccc12` (stereo not shown) [CBK115367]: 75.1%.

`CCOC(=O)c1sc2ncccc2c1N` [CBK115371]: the viability at 28.5 h, 10 µM was 83.9%.

On to `O=C(O)C(Cc1ccccc1)N1C(=O)c2cccc([N+](=O)[O-])c2C1=O` (stereo not shown) [CBK115372], for which the viability at 28.5 h, 10 µM amounted to 95.8%. The same measure, in the same setting: then `O=C1OC(c2ccccc2)=C/C1=C1/C(=O)Nc2ccccc21` [CBK115375], with 102%; and `CCOC(=O)c1sc2nc(C)ccc2c1N` [CBK115377], with 96.5%; and `COc1ccc2c(c1)nc1n2CCC1OC(C)=O` (stereo not shown) [CBK115379], with 100%.

`O=C1N=C(NC2CCCC2)OC12CCN(Cc1ccccc1)CC2` [CBK115430]: the viability at 28.5 h, 10 µM was 103%.

Turning to `CS(=O)(=O)N1CC2(CCN(CCCOc3ccccc3)CC2)c2ccccc21` [CBK115457T], the viability at 28.5 h, 10 µM is 106%. Still for that read-out and setting: next, `CS(=O)(=O)N1CC2(CCN(CCOCc3ccccc3)CC2)c2ccccc21` [CBK115458T]: 96.4%.

`CS(=O)(=O)N1CC2(CCN(CC3COc4ccccc4O3)CC2)c2ccccc21` (stereo not shown) [CBK115461T]: the viability at 28.5 h, 10 µM was found to be 101%. `CCCc1c(Cc2c(Cl)cccc2Cl)c(=O)n(C)n1C` [CBK115466]: the viability at 28.5 h, 10 µM was found to be 93%. Same read-out and setting: then `Cc1[nH]c(=O)[nH]c(=S)c1C(=O)Nc1ccc2[nH]c(C(F)(F)F)nc2c1` [CBK115494], with 95.2%. In the case of `COc1cc(NC(=O)c2c(C)[nH]c(=O)[nH]c2=S)cc(C(F)(F)F)c1` [CBK115495], the viability at 28.5 h, 10 µM was 92.3%. Same read-out and setting: next, `COc1ccc(NC(=O)c2c(C)[nH]c(=O)[nH]c2=S)cc1OC` [CBK115517]: 90.4%; `Cc1[nH]c(=O)[nH]c(=S)c1C(=O)Nc1ccc2c(c1)OCO2` [CBK115519]: 100%; `NC(=O)c1ccccc1-c1cnc(N)c(-c2ccc(O)cc2)n1` [CBK115536]: 89.4%. The same measure, in the same setting: next, `Cc1ccccc1-c1cnc(N)c(-c2ccc(O)cc2)n1` [CBK115544]: 95%; `CCOC(=O)c1ccc(-n2sc3ccccc3c2=O)cc1` [CBK115552]: 99.1%; `CN(C)S(=O)(=O)c1ccc2c(c1)nc1n2CCC1` [CBK115558]: 71.4%. Still for that read-out and setting: next, `CC(O)c1nc2ccccc2n1C` (stereo not shown) [CBK115560]: 94.9%. Regarding `Cc1[nH]c(=S)[nH]c(=O)c1Cc1cccc2ccccc12` [CBK115563], the viability at 28.5 h, 10 µM stood at 82.4%.

Take `O=C(c1ccco1)c1coc2ccc(O)cc12` [CBK115570]: the viability at 28.5 h, 10 µM is 113%. Same read-out and setting: then `CC(O)c1nc2ccc(Cl)cc2[nH]1` (stereo not shown) [CBK115573], with 102%; and `CCn1c(C)nc2cc(Cl)c(Cl)cc21` [CBK115577], with 89.3%; and `CCNC(=O)NCc1ccc(F)cc1` [CBK115581], with 84.9%.

`O=C(NCc1ccc(F)cc1)Nc1ccccc1F` [CBK115584]: the viability at 28.5 h, 10 µM was 98.9%.

Consider `COc1cccc(NC(=O)NCc2ccc(F)cc2)c1` [CBK115590], for which the viability at 28.5 h, 10 µM turned out to be 90.2%. On to `CC(C)Nc1cncc(OC2CCN(C)C2)n1` (stereo not shown) [CBK115598], for which the viability at 28.5 h, 10 µM turned out to be 90.8%. Consider `CC(C)Nc1cncc(OCCN2CCOCC2)n1` [CBK115599], for which the viability at 28.5 h, 10 µM is 109%.

Turning to `CC(C)Nc1cncc(OCCCN(C)C)n1` [CBK115600], the viability at 28.5 h, 10 µM stood at 105%. On the same count and under the same terms, next, `CC(C)Nc1cncc(OCCN2CCNCC2)n1` [CBK115601]: 93.6%. Still for that read-out and setting: next, `CC(C)Nc1cncc(OCC2CN(C)CCN2C)n1` (stereo not shown) [CBK115602]: 87.7%; `CC1(OCCCN2CCCCC2)SC(NC2CC3CCC2C3)=NC1=O` (stereo not shown) [CBK115611]: 87.2%; `CC(C)(C)OC(=O)N1CCN(CCCOC2(C)SC(NC3CC4CCC3C4)=NC2=O)CC1` (stereo not shown) [CBK115612]: 95.9%.

`N#Cc1cccc(-c2cnc(N)c(-c3ccc(O)cc3)n2)c1` [CBK115630]: the viability at 28.5 h, 10 µM is 98%. On the same count and under the same terms, next, `CC(C)Nc1nccnc1OCCc1c[nH]c2ccccc12` [CBK115647]: 79.7%.

Turning to `CC(C)Nc1cncc(OCc2ccc(Cl)c(Cl)c2)n1` [CBK115653], the viability at 28.5 h, 10 µM worked out at 87.5%.

In the case of `c1cnc(N2CCCC2)c(OCc2ccsc2)n1` [CBK115664], the viability at 28.5 h, 10 µM came out at 92.2%.

On to `c1cc(COc2cncc(N3CCCC3)n2)cs1` [CBK115669], for which the viability at 28.5 h, 10 µM came out at 102%. For the compound `COc1cc2c3c([nH]c2cc1F)C1(CCN(CCOc2ccccc2)C1)NCC3` (stereo not shown) [CBK115687T], the viability at 28.5 h, 10 µM came out at 77.6%. Consider `O=C1N=C(NCc2ccccc2F)OC12CCN(Cc1ccccc1)CC2` [CBK115688], for which the viability at 28.5 h, 10 µM worked out at 96.2%.

Still in this data set, the particulars now being: human, hela cells, % viability, bulk resorufin, single well.
For the compound `CCOC(=O)c1ccc(NC(=O)c2c(O)[nH]c(=O)[nH]c2=O)cc1` [CBK115565], the viability at 28.5 h, 10 µM was 84.7%. Same read-out and setting: next, `COc1ccc(CC(=O)Nc2cccc(-c3ccc4c(c3)COC3(CCNCC3)O4)c2)c(OC)c1` [CBK115706]: 89.6%.
